Experimental data from patent US20260137701A1, “CHOLESTENOIC ACID (CA) AND A SULFATED DERIVATIVE THEREOF, 3[BETA]-SULFATE-5-CHOLESTENOIC ACID (CA3S), AS ENDOGENOUS EPIGENETIC REGULATORS” (priority 2022, published 2026).

System: Hep G2 cells
Type: in vitro ADME, human
Details: human, 24 h
From the text: Mitochondrial oxysterols, including cholestenoic acid (CA), 25-hydroxycholesterol (25HC), and 27-hydroxycholesterol (27HC), are potent regulators involved in important biological events such as lipid metabolism and inflammatory responses. However, their intracellular catabolic pathways have not been fully explored. In this study, we investigated the metabolic pathways of these oxysterols and their roles in the communication between hepatocytes and macrophages.

Structure (SMILES): CC(CCC[C@@H](C)[C@H]1CC[C@H]2[C@@H]3CC=C4C[C@@H](O)CC[C@]4(C)[C@H]3CC[C@]12C)C(=O)O (stereo partly drawn) [CA, 3β-hydroxy-5-cholestenoic acid]
- maximum of novel molecular ion m/z 495 (CA3S) formed from CA: 90%
